System: isolated guinea pig gallbladder
Assay: Isolated guinea pig gallbladder assay (contraction, % CCK-induced maximal response)
Conditions: Table 1; for % contraction at 1 µM / % contraction at 30 µM: Cavia porcellus; for % contraction at 1 µM: read-out: % Contraction (1 μM), expressed as % CCK-induced maximal response; for % contraction at 30 µM: read-out: % Contraction (30 μM), expressed as % CCK-induced maximal response
Method: 3. GUINEA PIG GALL BLADDER ASSAY
Gallbladders are removed from guinea pigs sacrificed by cervical dislocation. The isolated gallbladders are cleaned of adherent connective tissue and cut into two rings from each animal (2-6 mm in length). […] Tissues are connected via gold chains and stainless steel mounting wires to isometric force displacement transducers (Grass, Model FT03 D). Responses are then recorded on a polygraph (Grass, Model 7E).
Rings are gradually stretched (over a 120 min. period) to a basal resting tension of 1 gm which is maintained throughout the experiment. During the basal tension adjustment period, the rings are exposed to acetylcholine (10^-6 M) four times to verify tissue contractility. The tissues are then exposed to a submaximal dose of sulfated CCK-8 (Sigma, 3×10^-9 M). After obtaining a stable response, the tissues are washed out 3 times rapidly and every 5 to 10 minutes for 1 hour to reestablish a stable baseline.
As a final test, ACH (10 μM) is added to induce maximal contraction.

Row | Structure (SMILES) | % contraction at 1 µM (1 μM) [%] | % contraction at 30 µM (30 μM) [%] | also measured
1 | COc1ccc(N(C(=O)CN2C(=O)C(CC(=O)Nc3cccc(C(=O)O)c3)N=C(c3ccccc3)c3ccccc32)C(C)C)cc1 (stereo not shown) [Example 10, 3-(2-{1-[Isopropyl-(4-methoxy-phenyl)-carbamoylmethyl]-2-oxo-5-phenyl-2,3-dihydro-1H-benzo[e][1,4]diazepin-3-yl}-acetyl-amino)-benzoic acid] | 54 | – | –
2 | CC1=NC(NC(=O)Nc2ccccc2)C(=O)N(CC(=O)N(c2ccccc2)C(C)C)c2ccccc21 (stereo not shown) [Example 2, N-Isopropyl-2-[5-methyl-2-oxo-3-(3-phenyl-ureido)-2,3-dihydro-benzo[e][1,4]diazepin-1-yl]-N-phenyl-acetamide] | – | 88 | –
3 | CC(C)N(C(=O)CN1C(=O)C(NC(=O)Nc2cccc(-c3nn[nH]n3)c2)N=C(c2ccccc2)c2ccccc21)c1ccccc1 (stereo not shown) [Example 1, 1N-Isopropyl-2-(2-oxo-5-phenyl-3-{3-[3-(1H-tetrazol-5-yl)-phenyl]-ureido}-2,3-dihydro-benzo[e][1,4]diazepin-1-yl)-N-phenyl-acetamide] | – | 63 | –
4 | COc1ccc(N(C(=O)CN2C(=O)[C@H](Cc3c[nH]c4ccccc34)n3cnnc3-c3ccccc32)C(C)C)cc1 [Example 22, S-2-[4-(1H-Indol-3-ylmethyl)-5-oxo-6,5-dihydro-1,2,3a,6-tetraaza-benzo[e]azulene-6-yl}-N-isopyropyl-N-(4-methoxy-phenyl)acetamide] | 36 | – | –
5 | COc1ccc(N(C(=O)CN2C(=O)C(NC(=O)Nc3ccccc3)N=C(c3cccnc3)c3ccccc32)C(C)C)cc1 (stereo not shown) [Example 18, N-Isopropyl-N-(4-methoxy-phenyl)-2-[2-oxo-3-(3-phenyl-ureido)-5-pyridin-3-yl-2,3-dihydro-benzo[e][1,4]diazepin-1-yl]-acetamide] | 75 | – | –
6 | CC(C)N(C(=O)CN1C(=O)[C@@H](NC(=O)Nc2cccc(C(=O)O)c2)N=C(c2ccccc2)c2ccccc21)c1ccccc1 [Example 12, (S)-3-{3-[1-(Isopropyl-phenyl-carbamoylmethyl)-2-oxo-5-phenyl-2,3-dihydro-1H-benzo[e][1,4]diazepin-3-yl]-ureido}-benzoic acid] | – | 80 | –
7 | CC1=NC(NC(=O)Nc2cccc3cn[nH]c23)C(=O)N(CC(=O)N(c2ccccc2)C(C)C)c2ccccc21 (stereo not shown) [Example 4] | 23 | 59 | –
8 | CC(C)N(C(=O)CN1C(=O)C(NC(=O)Nc2ccccc2)N=C(c2ccccc2)c2ccccc21)c1ccccc1 (stereo not shown) [Example 3] | – | 38 | –
9 | COc1ccc(N(C(=O)CN2C(=O)C(CC(=O)Nc3ccccc3)N=C(c3ccccc3)c3ccccc32)C(C)C)cc1 (stereo not shown) [Example 11, 2-{1-[Isopropyl-(4-methoxy-phenyl)-carbamoylmethyl]-2-oxo-5-phenyl-2,3-dihydro-1H-benzo[e][1,4]diazepin-3-yl}N-phenyl-acetamide] | 56 | 43 | –
10 | CC1=NC(NC(=O)Nc2cccc(C(=O)O)c2)C(=O)N(CC(=O)N(c2ccccc2)C(C)C)c2ccccc21 (stereo not shown) [Example 7, 3-{3-[1-(Isopropyl-phenyl-carbamoylmethyl)-5-methyl-2-oxo-2,3-dihydro-1H-benzo[e][1,4]diazepin-3-yl]-ureido}-benzoic acid] | 16 | 61 | –
11 | CC(C)N(C(=O)CN1C(=O)[C@H](NC(=O)Nc2cccc(C(=O)O)c2)N=C(c2ccccc2)c2ccccc21)c1ccccc1 [Example 13, (R)-3-{3-[1-(Isopropyl-phenyl-carbamoylmethyl)-2-oxo-5-phenyl-2,3-dihydro-1H-benzo[e][1,4]diazepin-3-yl]-ureido}-benzoic acid] | – | 77 | –
12 | CC(C)N(C(=O)CN1C(=O)C(NC(=O)c2cc3ccccc3[nH]2)N=C(c2ccccc2)c2ccccc21)c1ccccc1 (stereo not shown) [Example 14, 1H-indolyl-2-carboxylic acid [1-(isopropyl-phenyl-carbamoylmethyl)-2-oxo-5-phenyl-2,3-dihydro-1H-benzo[e][1,4]diazepin-3-yl]-amide] | – | 13 | –
13 | COc1ccc(N(C(=O)CN2C(=O)[C@H](Cc3c[nH]c4ccccc34)NC(=O)c3ccccc32)C(C)C)cc1 [Example 21, (S)-2-[3-(1H-Indol-3-ylmethyl)-2,5-dioxo-2,3,4,5-tetrahydro-benzo[e][1,4]diazepin-1-yl]-N-isopropyl-N-(4-methyoxy-phenyl)-acetamide] | 54 | – | –
14 | CC(C)N(C(=O)CN1C(=O)C(NC(=O)Nc2cccc(C(=O)O)c2)N=C(c2ccccc2)c2ccccc21)c1ccc(N(C)C)cc1 (stereo not shown) [Example 9, 3-(3-{1-[(4-Dimethylamino-phenyl)-isopropyl-carbamoylmethyl]-2-oxo-5-phenyl-2,3-dihydro-1H-benzo[e][1,4]diazepin-3-yl}-ureido)-benzoic acid] | 73 | 62 | –
15 | COc1ccc(N(C(=O)CN2C(=O)[C@@H](Cc3c[nH]c4ccccc34)NC(=O)c3c(CC(=O)O)cccc32)C(C)C)cc1 [Example 24] | – | – | % Contraction (1 μM), expressed as % CCK-induced maximal response (1 μM): 93%; % Contraction (30 μM), expressed as % CCK-induced maximal response (30 μM): 79%
16 | CC(C)N(C(=O)CN1C(=O)C(NC(=O)c2cc3ccccc3n2CC(=O)O)N=C(c2ccccc2)c2ccccc21)c1ccccc1 (stereo not shown) [Example 15, {2-[1-(Isopropyl-phenyl-carbamoylmethyl)-2-oxo-5-phenyl-2,3-dihydro-1H-benzo[e][1,4]diazepin-3-ylcarbamoyl]-indol-1-yl}-acetic acid] | – | 52 | –
17 | CC(C)N(C(=O)CN1C(=O)C(NC(=O)Nc2cccc(C(=O)O)c2)N=C(c2ccccc2)c2ccccc21)c1ccccc1 (stereo not shown) [Example 5, 3-{3-[1-(Isopropyl-phenyl-carbamoylmethyl)-2-oxo-5-phenyl-2,3-dihydro-1H-benzo[e][1,4]diazepin-3-yl]-ureido}-benzoic acid] | – | 82 | –
18 | COc1ccc(N(C(=O)CN2C(=O)[C@@H](Cc3c[nH]c4ccccc34)n3cnnc3-c3ccccc32)C(C)C)cc1 [Example 23, (R)-2-[4-(1H-Indol-3-ylmethyl)-5-oxo-6,5-dihydro-1,2,3a,6-tetraaza-benzo[e]azulene6-yl}-N-isopropyl-N-(4-methoxy-phenyl)-acetamide] | 36 | – | –
19 | COc1ccc(N(C(=O)CN2C(=O)C(Cc3c[nH]c4ccccc34)N=C(c3ccccc3)c3ccccc32)C(C)C)cc1 (stereo not shown) [Example 17, 3-{1-[Isopropyl-(4-methoxy-phenyl)-carbamoylmethyl]-2-oxo-5-phenyl-2,3-dihydro-1H-benzo[e][1,4]diazepin-3-ylmethyl}-indolyl] | 24 | – | –
20 | CC(C)N(C(=O)CN1C(=O)C(NC(=O)Nc2ccccc2)[N+]([O-])=C(c2ccccc2)c2ccccc21)c1ccccc1 (stereo not shown) [Example 16, N-Isopropyl-2-[4-N-oxide-2-oxo-5-phenyl-3-(3-phenyl-ureido)-2,3-dihydro-benzo[e][1,4]diazepin-1-yl]-N-phenyl-acetamide] | – | 67 | –
21 | COc1ccc(N(C(=O)CN2C(=O)[C@@H](Cc3c[nH]c4ccccc34)NC(=O)c3ccccc32)C(C)C)cc1 [Example 20, (R)-2-[3-(1H-Indol-3-ylmethyl)-2,5-dioxo-2,3,4,5-tetrahydro-benzo[e][1,4]diazepin-1-yl]-N-isopropyl-N-(4-methyoxy-phenyl)-acetamide] | 31 | – | –
22 | COc1ccc(N(C(=O)CN2C(=O)C(NC(=O)Nc3cccc(C(=O)O)c3)N=C(c3ccccc3)c3ccccc32)C(C)C)cc1 (stereo not shown) [Example 8, 3-(3-{1-[Isopropyl-(4-methoxy-phenyl)-carbamoylmethyl]-2-oxo-5-phenyl-2,3-dihydro-1H-benzo[e][1,4]diazepin-3yl}-ureido)-benzoic acid] | 59 | 86 | –
23 | CC(C)N(C(=O)CN1C(=O)C(NC(=O)c2ccc(Cl)cc2N)N=C(c2ccccc2)c2ccccc21)c1ccccc1 (stereo not shown) [Example 6, 2-Amino-4-chloro-N-[1-(isopropyl-phenyl-carbamoylmethyl)-5-phenyl-2-oxo-5-phenyl-2,3-dihydro-1H-benzo[e][1,4]diazepin-3-yl]-benzamide] | 41 | – | –
24 | CC(C)N(C(=O)CN1C(=O)C(NC(=O)Nc2ccccc2)n2cnnc2-c2ccccc21)c1ccccc1 (stereo not shown) [Example 19, N-Isopropyl-N-phenyl-2-[5-oxo-4-(3-phenyl-ureido)-4,5-dihydro-1,2,3a,6-tetraaza-benzo[e]azulen-6-yl]-acetamide] | 83 | 58 | –
